Several values for one entry are separate records, joined by “and”; a condition that tells them apart may be missing. Equal entries are not always repeated. Where two headings read alike, the source gives them in different places.
Tests used:
[1] = in vivo; cited from earlier work
Balb/c 3T3 cells [2] = assay: NRU assay in Balb/c 3T3; format: cell-based, mouse; settings: for EC50: Mus musculus, read-out: EC50 (effective concentration)
Description: (§1) The HepG2 cell line was purchased from the American Type Culture Collection (ATCC® HB-8065™). The cells were cultured in Minimum Essential Medium Eagle (MEME) (Sigma–Aldrich Co. (St. Louis, MO, USA)). Normal murine embryonic fibroblasts, Balb/c 3T3 clone A31 cell line (gift from Department of Swine Diseases of the National Veterinary Research Institute in Pulawy) was cultured in Dulbecco’s Modified Eagle’s Medium (DMEM) (Invitrogen Corporations (Paisley, UK)). The media were supplemented with 10% BCS (Balb/c 3T3), 10% FBS (HepG2), 1% L-glutamine, and 1% antibiotic solution. The cells were maintained in 75 cm^2 cell culture flasks in humidified incubator at 37 °C, in an atmosphere of 5% CO2. The medium was refreshed every two or three days and the cells were trypsinized by 0.25% trypsin–0.02% EDTA after reaching 70–80% confluence. The initial cell viability was determined with the trypan blue exclusion test. Single cell suspensions were prepared and adjusted to a density of 2 × 10^5 cell/mL (HepG2) and 1 × 10^5 cell/mL (Balb/c 3T3). The cell suspension was transferred to 96-well plates (100 µL/well) and incubated for 24 h before exposure to the studied drugs.
(§2) The concentration ranges of the drugs were chosen according to their solubility and their plasma level. Each drug was dissolved in DMSO. The final concentration of DMSO was 0.1% or 0.2% in the medium for both samples and corresponding controls. […] All drug solutions in medium were freshly prepared and protected from light. SAL was tested in seven concentrations from 0.39 to 25 µg/mL. […] The cytotoxicity was assessed after 24 and 48 h of exposure of cell lines or after 12 and 24 h exposure of PHH. […]
The assay, based on staining of living cells by neutral red (NR), was performed according to the protocol described by Borenfreund and Puerner. […] After 10 min of shaking, the absorbance of the dissolved NR was measured at 540 nm using a blank as a reference. Cytotoxicity was expressed as a percentage of the negative control (0.1% or 0.2% DMSO).

[3] = rat, in vivo; cited from earlier work
Balb/c 3T3 cells [4] = assay: MTT assay, cytotoxicity in Balb/c 3T3; format: cell-based; settings: Mus musculus, BALB/c3T3, Balb/c 3T3, MTT, mean ± SEM, n = 3, read-out: EC50 (effective concentration)
Description: as §1, with “The medium was refreshed every two or three days and the cells were trypsinized by 0.25% trypsin–0.02% EDTA after reaching 70–80% confluence.” left out, “Single cell suspensions were prepared and adjusted to a density of 2 × 10^5 cell/mL (HepG2) and 1 × 10^5 cell/mL (Balb/c 3T3). The cell suspension was transferred to 96-well plates (100 µL/well) and incubated for 24 h before exposure to the studied drugs.” left out
The concentration ranges of the drugs were chosen according to their solubility and their plasma level. […] The cytotoxicity was assessed after 24 and 48 h of exposure of cell lines or after 12 and 24 h exposure of PHH. […]
(§3) The metabolic activity of living cells was assessed by measuring the activity of dehydrogenases. […] The plate was shaken for 15 min at room temperature and transferred to a microplate reader to measure the absorbance at 570 nm, using a blank as a reference. Cytotoxicity was expressed as a percentage of the negative control (0.1% or 0.2% DMSO).

[5] = Cytotoxicity battery in human hepatoma cells; format: cell-based; settings: HepG2 human hepatoma cells, after 24 h, read-out: cytotoxic concentrations
Description: as §2, with “µg/mL. Tiamulin was added in two concentrations (1 and 10 µg/mL) or just one concentration (1 µg/mL) to cell lines or human hepatocytes, respectively. Prednisolone was tested in one concentration—1 µg/mL independent of the type of cells.” for “µg/mL.”
as §3
(§4) The assay, based on staining of living cells by neutral red (NR), was performed according to the protocol described by Borenfreund and Puerner. […] After 10 min of shaking, the absorbance of the dissolved NR was measured at 540 nm using a blank as a reference. […]

hepatoma tumor = settings: mice, doses of 4 and 8 mg/kg b.w.; cited from earlier work
[6] = Cytotoxicity battery in fibroblasts; format: cell-based; settings: mouse, Balb/c 3T3 fibroblasts, inhibiting lysosomal and mitochondrial activity and synthesis of cellular proteins, read-out: cytotoxic concentrations
Description: as §2, with “µg/mL. Tiamulin was added in two concentrations (1 and 10 µg/mL) or just one concentration (1 µg/mL) to cell lines or human hepatocytes, respectively. Prednisolone was tested in one concentration—1 µg/mL independent of the type of cells.” for “µg/mL.”
as §3, §4

CC[C@@H](C(=O)[C@@H](C)[C@@H](O)[C@H](C)[C@@H]1O[C@@H]([C@@H](CC)C(=O)O)CC[C@@H]1C)[C@H]1O[C@]2(C=C[C@@H](O)[C@]3(CC[C@@](C)([C@H]4CC[C@](O)(CC)[C@H](C)O4)O3)O2)[C@H](C)C[C@@H]1C [SAL, salinomycin]
unchanged SAL in excreta, share of administered dose [1]: 2% | lowest concentration with significant effect on lysosomal activity (Balb/c 3T3 cells [2]; Balb/c 3T3, 24 h, SAL alone or in both drug combinations (Figure S3)): 0.39 µg/mL | EC50 (Balb/c 3T3 cells [2]; BALB/c3T3, 24 h): 0.6 ± 0.2 mg/L | EC50 (Balb/c 3T3 cells [2]; BALB/c3T3, 48 h): < 0.39 mg/L | unchanged SAL in excreta, share of administered dose [3]: 2% | EC50 (Balb/c 3T3 cells [4]; 24 h exposure): 10.4 ± 1.4 mg/L | EC50 (Balb/c 3T3 cells [4]; 48 h exposure): 4.3 ± 0.9 mg/L | EC50 at 24 h [5]: 800 nM to 20.5 µM and 0.6 µg/mL to 15.4 µg/mL | effect on hepatoma tumor (hepatoma tumor): significantly reducing the hepatoma tumor | EC50 [6]: 0.6 to 10 mg/L
